Assay results published in patent EP0605371A1 (priority 1992, dated 1994).

Tests used:
[1] = tested on: patients with Parkinson's disease; conditions: cited from earlier work
[2] = tested on: patients with systemic scleroderma; format: in vivo
Method: (§1) Treatment with melatonin was administered to ambulant patients with various forms of systemic scleroderma, in various stages of the disease, and to patients with sarcoidosis.
(§2) The patients and methods were as follows:
(§3) Ten patients with systemic scleroderma in an active phase and four patients with pulmonary sarcoidosis were selected.
The clinical characteristics of the patients with systemic scleroderma and the level of activity and severity of the disease were assessed with the aid of a skin score (cf. annexe) and information obtained from lung function tests, a chest X-ray, pulmonary CAT and numerous laboratory tests (antinuclear antibodies (A), A to the extractable nuclear antigen Scl-70, antinucleolar A, anti-DNA A, antimicrosome A, anticentromeric A, ESR, ACE, CRP, gamma globulins).
To assess the effects of the treatment, the skin-score, ESR, ACE, CRP were determined monthly, the lung function tests were performed every 2 months, and chest X-ray and/or thoracic CAT carried out at the end of a 4-month course of treatment.
(§4) When the clinical evaluation had been completed and after all the laboratory tests had been performed, the patients with systemic scleroderma and sarcoidosis received in a daily dose of 20 mg taken by mouth as a single dose between 18.00 and 20.00 hours. This timing was chosen with the aim of interfering as little as possible with the circadian rhythm of endogenous melatonin secretion.
The clinical investigations and laboratory tests performed at the start of the combined treatment therefore served both as a control on the treatment with hydroxychloroquine and to provide the base values for the tests performed during the treatment with melatonin.
(§5) The other patients with systemic scleroderma and those with sarcoidosis received only melatonin.

[3] = tested on: patients with pulmonary sarcoidosis; assay: Four-month oral melatonin treatment of patients with pulmonary sarcoidosis; format: in vivo
Method: as §1, §2, §3
The diagnosis was made on the basis of histological tests performed on biopsy samples, the BAL for the T-lymphocyte count and scintigraphy with gallium-67. Overall lung function tests, a chest X-ray and numerous laboratory tests (ACE, blood calcium, urinary calcium, ESR, etc.) were also performed.
The effects of the treatment were evaluated monthly on the basis of any changes in lung function and ACE levels and at the end of the four-month period on the basis of any changes in the radiological findings.
as §4, §5

cancer patients = cancer patients no longer responsive to conventional therapies; cited from earlier work
[4] = 20 mg melatonin per day for four months

For `COc1ccc2[nH]cc(CCNC(C)=O)c2c1` [melatonin, 5-methoxy-N-acetyltryptamine], the demonstrable advantages ([1]; daily doses of up to 6 g) is given as “no demonstrable advantages”, the adverse effects ([1]; human, in vivo) is given as “no adverse effects” and the “CRP or gamma globulin values” [2, 4] is given as “No significant changes”. For the same compound, the subjective respiratory disturbances [2, 4] was “marked subjective reduction”, the lung function tests ([2]; 20 mg melatonin per day for four months, ten patients) was “significant improvement in nine of the ten patients” and the skin score ([2]; 20 mg melatonin per day for four months, ten patients (FIG.1)) was “highly positive results”. The “chest X-ray” value ([2]; after 4 months of treatment, all patients) was “No significant changes were found in any of the patients”, the ESR ([2]; throughout the course of treatment, 20 mg per day) was “It was not possible to demonstrate that the hormone treatment had an effect on this parameter” and the “radiological investigation (changes affecting the hilum and the pulmonary parenchyma)” value ([3]; end of the four-month course) was “definitive reduction”. For the same compound, the lung function tests ([3]; end of the four-month course, four patients) was “the findings in three patients had returned to normal and the fourth patient showed marked improvement”, the “fall of BAL lymphocyte count” value ([3]; end of the four-month course, on average) was 70% and the ACE ([3]; monthly determination, 20 mg per day, all cases (FIG.2)) was “the values gradually returned to normal”. For the same compound, the “patients' general condition and disease course” value (cancer patients) was “the patients' general condition showed improvement and the disease was temporarily stabilized”.
